Tests used:
[1] = tested on: human breast, lung, liver, prostate, ovarian, and colorectal cancer cell lines; test: Effect of Pter on growth or viability in vitro of breast, lung, liver, prostate, ovarian and colorectal tumor cell lines; type: cell-based; conditions: any of the tumor cell lines used (FIG. 15); 15 μM Pter×60 min every 24 h
Source text: FIG. 15. In vivo effect of Pter on human breast, lung, liver, prostate, ovarian, and colorectal cancer growth. […] For the lower and maximum Pter dose used, in each case, only the endpoint of the treatment period is shown.
(§1) Human A2058, MeWo and MelJuso melanoma cells, and mouse AtT-20 pituitary corticotroph tumor cells were from the American Type Culture Collection (ATCC). Human HEMa-LP epidermal melanocytes were from Life Technologies (Grand Island, N.Y.). Human MDA-MB-231 (triple negative: ER−, PR−, HER2−) and MCF-7 (ER+, PR+, HER2−) breast adenocarcinoma, A549 lung adenocarcinoma (NSCLC), HepG2 hepatocellular carcinoma, LNCaP (AR+) and PC-3 (AR−) prostate adenocarcinoma, SK-OV-3 epithelial ovarian carcinoma, and HT-29 and Caco-2 colorectal carcinoma cells were from the American Type Culture Collection. Cells were grown in Dulbecco's modified Eagle's medium (DMEM) (Invitrogen, San Diego, Calif.), pH 7.4, supplemented with 10% heat-inactivated FCS (Biochrom KG, Berlin, Germany), 100 units/ml penicillin and 100 μg/ml streptomycin. […] Cell numbers were determined using a Coulter Counter (Coulter Electronic Inc., Miami, Fla.). […] Cellular viability was assessed as previously reported (Mena, S. et al. Clin Cancer Res 13, 2658-2666 (2007)), by measuring trypan blue exclusion and leakage of lactate dehydrogenase activity.

[2] = tested on: B16-F1 cells; test: Effect of Pter on B16-F1 cell growth or viability in vitro; type: cell-based, murine; conditions: 15 μM Pter×60 min every 24 h
Method: FIG. 14. In vivo effect of Pter on tumor growth (A) and on corticosterone (B) and ACTH (C) levels in plasma of murine B16-F1 melanoma-bearing mice. Pter (30 mg/kg) was administered i.v. every 24 h for a period of 15 days, starting 3 days after tumor inoculation.
as §1

[3] = tested on: BxPC-3 pancreatic cancer cells; test: Nrf2- and redox state-related enzyme activities and metabolites in BxPC-3 cells growing in vivo; parameters: species or system human; conditions: BxPC-3, in vivo +Pter, day 35
Method: To measure enzyme activity, isolated tumor cells were homogenized in 0.1 M phosphate buffer (pH 7.2) at 4° C. GCL and GSS activities were measured as described previously (Obrador, E. et al. Hepatology 35, 74-81 (2002)). GPX (selenium dependent) activity was measured as described by Flohé and Gunzler (Flohe, L. & Gunzler, W. A. Methods Enzymol 105, 114-121 (1984)) using H2O2 as a substrate. GSR activity was determined as described by Akerboom and Sies (Akerboom, T. P. et al, Bull Eur Physiopathol Respir 17 Suppl, 221-227 (1981)). GGT activity was measured as described previously (Obrador, E. et al. Hepatology 35, 74-81 (2002)). GST activity was measured using an assay kit from Sigma. TXNRD activity, defined by the concentration of sodium-lipoate (disulfide) reduced to dehydrolipoate (dithiol) per milligram protein, was measured as previously described (Javvadi, P. et al. Cancer Res 70, 1941-1950 (2010)). SOD activity was measured as described by Flohé and Otting (Flohe, L. & Otting, F. Methods Enzymol 105, 93-104 (1984).) using 2 mM cyanide in the assay medium to distinguish mangano-type enzyme (SOD2) from the cuprozinc type (SOD1). CAT activity was analyzed as described by Aebi (Aebi, H. Methods Enzymol 105, 121-126 (1984)). NOX activity was measured by chemiluminescence following the methodology of Wind et al. (Wind, S. et al. Comparative pharmacology of chemically distinct NADPH oxidase inhibitors. Br J Pharmacol 161, 885-898 (2010)). Protein concentration was determined with the Pierce BCA protein assay (Fisher Scientific, Waltham, Mass.). […]
Quantitative measurement of H2O2 and flow cytometry determination of O2^⋅− generation were performed as previously described (Benlloch, M. et al. J Biol Chem 281, 69-79 (2006)).
GSH, GSSG, NADP^+ and NADPH Determination.
GSH and GSSG were determined, following procedures previously described (Obrador, E. et al. PLoS One 9, e96466 (2014)), by LC/MS using the same equipment described above for pterostilbene determination. Cell processing was performed according to published methodology, where rapid N-ethylmaleimide derivatization was used to prevent GSH auto-oxidation (Asensi, M. et al. Anal Biochem 217, 323-328 (1994)). NADP^+ and NADPH were quantitated using an assay kit from Sigma (St. Louis, Mo.).

[4] = tested on: AtT-20 pituitary corticotroph tumor cells; test: ACTH production and POMC expression in AtT-20 cells; type: cell-based, mouse; conditions: pterostilbene 15 μM
Method: FIG. 3. Pterostilbene bioavailability in brain and the pituitary gland, and its effect on ACTH synthesis and POMC expression in AtT-20 cells. […] (B) Effect of pterostilbene on ACTH production by AtT-20 cells in a 24 h-period (measured between 24-48 h or between 48-72 h). […] After the 30 min period, culture flasks were washed out (three times with PBS) and the medium was renewed (controls received identical treatment).
Plasma levels of ACTH (Calbiotech, Inc., Spring Valley, Calif.), corticosterone (Kamiyama Biomedical Co., Seattle, Wash.), and NORA (IBL, Hamburg, Germany) were quantified by ELISA according to the instructions of the suppliers.
RT-PCR and detection of mRNA was performed as described above. For Western blotting (see also above) POMC mouse monoclonal antibody (clone 2B2) from Origen (Rockville, Md.) were used.

`COc1cc(/C=C/c2ccc(O)cc2)cc(OC)c1` [Pter, trans-3,5-dimethoxy-4′-hydroxystilbene] was tested. Which “cell growth or viability in vitro” value [1] did it give?
The value was “did not affect”.

And the “cell growth or viability in vitro” value [2]?
Its value is “did not affect”.

What about the CAT [3] of the same compound?
Its CAT is 1.0 ± 0.2 mU/10^6 cells.

What about the G6PDH [3] of the same compound?
Its G6PDH is 264 ± 56 mU/10^6 cells.

And the GCL [3]?
Its GCL is 36 ± 15 mU/10^6 cells.

And the GGT [3]?
Its GGT is 19.7 ± 3.7 mU/10^6 cells.

And the GPX [3]?
The GPX was 9.2 ± 2.0 mU/10^6 cells.

And the GSH [3]?
The GSH was 3.7 ± 1.1 nmol/10^6 cells.

What about the GSH/GSSG [3] of the same compound?
Its GSH/GSSG is 12 ± 4.

What about the GSR [3] of the same compound?
Its GSR is 2.3 ± 0.7 mU/10^6 cells.

And the GSS [3]?
The GSS was 4.0 ± 1.3 mU/10^6 cells.

And the GSSG [3]?
The GSSG was 0.3 ± 0.1 nmol/10^6 cells.

What about the GST [3] of the same compound?
Its GST is 3.2 ± 1.0 mU/10^6 cells.

And the H2O2 [3]?
The H2O2 was 1.3 ± 0.2 nmol/10^6 cells × min.

And the IDH [3]?
Its IDH is 1.7 ± 0.5 U/10^6 cells.

What about the ME [3] of the same compound?
Its ME is 40 ± 7 mU/10^6 cells.

What about the NADPH [3] of the same compound?
The NADPH was 0.03 ± 0.01 nmol/mg prot.

And the “NADPH/NADP^+” value [3]?
The value was 0.6 ± 0.2.

What about the “NADP^+” value [3] of the same compound?
The value was 0.05 ± 0.005 nmol/mg prot.

And the NOX [3]?
Its NOX is 89 ± 25 R.L.U./10^6 cells.

What about the “O2′−” value [3] of the same compound?
Its value is 5.9 ± 1.7 ΔFL1, a.u.

What about the SOD1 [3] of the same compound?
The SOD1 was 0.1 ± 0.05 U/10^6 cells.

What about the SOD2 [3] of the same compound?
The SOD2 was 0.05 ± 0.02 U/10^6 cells.

And the TXN [3]?
The TXN was 0.2 ± 0.1 μg/10^6 cells.

What about the TXNRD [3] of the same compound?
Its TXNRD is 0.8 ± 0.2 U/10^6 cells.

What about the “ACTH production by AtT-20 cells” value ([4]; 30 min every 24 h, CRH 100 nM) of the same compound?
Its value is “decreases”.

What about the “POMC expression and levels in AtT-20 cells” value ([4]; 72 h of culture) of the same compound?
The value was “decreased”.
